Laboratory results: US10246462B2, “Chemokine receptor modulators and uses thereof” (FLX Bio, Inc., priority 2016, dated 2019)
Structures can show the parent of a compound that is named as a salt.

target: CCR4 (Homo sapiens (Human), UniProt P51679); test: Calcium mobilization (Ca Flux) assay; assay type: cell-based
Protocol: Calcium Mobilization Assay. Calcium mobilization experiments may be performed by labeling the human T-cell line CEM with […] dye (45 min at room temperature), washing with PBS, and re-suspending into flux buffer (HBSS with 1% FBS).

Chain of CCR4 (P51679 whole entry): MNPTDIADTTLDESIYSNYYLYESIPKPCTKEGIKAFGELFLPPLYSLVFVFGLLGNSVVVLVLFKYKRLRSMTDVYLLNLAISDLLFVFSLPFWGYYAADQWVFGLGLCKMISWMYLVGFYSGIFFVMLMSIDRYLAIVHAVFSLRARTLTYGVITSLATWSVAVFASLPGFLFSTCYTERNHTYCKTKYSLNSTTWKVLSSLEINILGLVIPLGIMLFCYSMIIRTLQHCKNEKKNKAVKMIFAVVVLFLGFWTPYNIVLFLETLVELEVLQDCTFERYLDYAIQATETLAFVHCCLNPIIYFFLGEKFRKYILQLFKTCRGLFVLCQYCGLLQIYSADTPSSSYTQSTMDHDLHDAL

IC50 [µM]	Compound
0.1 to 0.5	CCOC(=O)c1nn(C(C)c2ccc(Cl)cc2Cl)c2nc(N3CCC(N4CCCCC4)C(C)C3)cnc12 (stereo not shown) [Example 2, Ethyl 1-(1-(2,4-dichlorophenyl)ethyl)-6-(3′-methyl-[1,4′-bipiperidin]-1′-yl)-1H-pyrazolo[3,4-b]pyrazine-3-carboxylate hydrochloride]
0.1 to 0.5	Cc1nn([C@H](C)c2ccc(Cl)cc2Cl)c2nc(C3=CCC(N4CCC[C@H]4C(=O)O)C(C)C3)cnc12 (stereo partly drawn) [Example 70, (4-(1-((R)-1-(2,4-Dichlorophenyl)ethyl)-3-methyl-1H-pyrazolo[3,4-b]pyrazin-6-yl)-6-methylcyclohex-3-en-1-yl)-L-proline trifluoroacetate]
0.1 to 0.5	Cc1nn([C@H](C)c2ccc(Cl)cc2Cl)c2nc(N3CCC(C4CCCN(CCC(=O)O)C4)C(C)C3)cnc12 (stereo partly drawn) [Example 67, 3-(1′-(1-((R)-1-(2,4-Dichlorophenyl)ethyl)-3-methyl-1H-pyrazolo[3,4-b]pyrazin-6-yl)-3′-methyl-[3,4′-bipiperidin]-1-yl)propanoic acid hydrochloride]
> 0.5	C[C@H](c1ccc(Cl)cc1Cl)n1nc(C#N)c2ncc(N3CC[C@@H](N4CCCCC4)[C@@H](C)C3)nc21 [Example 24, 1-((R)-1-(2,4-Dichlorophenyl)ethyl)-6-((3′S,4′R)-3′-methyl-[1,4′-bipiperidin]-1′-yl)-1H-pyrazolo[3,4-b]pyrazine-3-carbonitrile hydrochloride]
0.1 to 0.5	Cc1nn([C@H](C)c2ccc(Cl)cc2Cl)c2nc(N3CC[C@H](N4CCC[C@H]4CCC(=O)O)[C@H](C)C3)cnc12 [Example 42, 3-((S)-1-((3R,4S)-1-(1-((R)-1-(2,4-dichlorophenyl)ethyl)-3-methyl-1H-pyrazolo[3,4-b]pyrazin-6-yl)-3-methylpiperidin-4-yl)pyrrolidin-2-yl)propanoic acid hydrochloride]
< 0.1	Cc1nn([C@H](C)c2ccc(Cl)cc2Cl)c2nc(N3CC[C@H](N4CCC[C@H]4C)[C@H](C)C3)cnc12 [Example 20, 1-((R)-1-(2,4-Dichlorophenyl)ethyl)-3-methyl-6-((3R,4S)-3-methyl-4-((R)-2-methylpyrrolidin-1-yl)piperidin-1-yl)-1H-pyrazolo[3,4-b]pyrazine hydrochloride]
0.1 to 0.5	CC(c1ccc(Cl)cc1Cl)n1nc(C(N)=O)c2ncc(N3CCC(N4CCCCC4)C(F)C3)nc21 (stereo not shown) [Example 25, 1-(1-(2,4-Dichlorophenyl)ethyl)-6-(3′-fluoro-[1,4′-bipiperidin]-1′-yl)-1H-pyrazolo[3,4-b]pyrazine-3-carboxamide hydrochloride]
0.1 to 0.5	CCC1CN(c2cnc3cnn(C(C)c4ccc(Cl)cc4Cl)c3n2)CCC1N1CCCCC1 (stereo not shown) [Example 9, 1-(1-(2,4-Dichlorophenyl)ethyl)-6-(3′-ethyl-[1,4′-bipiperidin]-1′-yl)-1H-pyrazolo[3,4-b]pyrazine hydrochloride]
> 0.5	CC1CCCCN1C1CCN(c2cnc3c(C(N)=O)nn(C(C)c4ccc(Cl)cc4Cl)c3n2)CC1 (stereo not shown) [Example 3, 1-(1-(2,4-Dichlorophenyl)ethyl)-6-(2-methyl-[1,4′-bipiperidin]-1′-yl)-1H-pyrazolo[3,4-b]pyrazine-3-carboxamide hydrochloride]
< 0.1	Cc1nn([C@H](C)c2ccc(Cl)cc2Cl)c2nc(N3CC[C@H](N4CCCCCCC4)[C@H](C)C3)cnc12 [Example 16, 6-((3R,4S)-4-(Azocan-1-yl)-3-methylpiperidin-1-yl)-1-((R)-1-(2,4-dichlorophenyl)ethyl)-3-methyl-1H-pyrazolo[3,4-b]pyrazine hydrochloride]
0.1 to 0.5	C[C@@H]1CC(c2cnc3c(C#N)nn([C@H](C)c4ccc(Cl)cc4Cl)c3n2)=CC[C@@H]1N1CCC[C@H]1CN [Example 81, 6-((4S,5R)-4-((S)-2-(Aminomethyl)pyrrolidin-1-yl)-5-methylcyclohex-1-en-1-yl)-1-((R)-1-(2,4-dichlorophenyl)ethyl)-1H-pyrazolo[3,4-b]pyrazine-3-carbonitrile hydrochloride]
0.1 to 0.5	CCC1CN(c2cnc3c(C(N)=O)nn(C(C)c4ccc(Cl)cc4Cl)c3n2)CCC1N1CCCCC1 (stereo not shown) [Example 6, 1-(1-(2,4-Dichlorophenyl)ethyl)-6-(3′-ethyl-[1,4′-bipiperidin]-1′-yl)-1H-pyrazolo[3,4-b]pyrazine-3-carboxamide hydrochloride]
0.1 to 0.5	Cc1nn([C@H](C)c2ccc(Cl)cc2Cl)c2nc(N3CC[C@H](N4CCC[C@H]4C)[C@H](C(=O)O)C3)cnc12 [Example 30, (3R,4S)-1-(1-((R)-1-(2,4-Dichlorophenyl)ethyl)-3-methyl-1H-pyrazolo[3,4-b]pyrazin-6-yl)-4-((R)-2-methylpyrrolidin-1-yl)piperidine-3-carboxylic acid hydrochloride]
< 0.1	C[C@@H]1CC(c2cnc3c(C#N)nn([C@H](C)c4ccc(Cl)cc4Cl)c3n2)=CC[C@@H]1N1CCC[C@H]1CO [Example 76, 1-((R)-1-(2,4-Dichlorophenyl)ethyl)-6-((4S,5R)-4-((S)-2-(hydroxymethyl)pyrrolidin-1-yl)-5-methylcyclohex-1-en-1-yl)-1H-pyrazolo[3,4-b]pyrazine-3-carbonitrile]
0.1 to 0.5	C[C@@H]1CC(c2cnc3c(C#N)nn([C@H](C)c4ccc(Cl)cc4Cl)c3n2)=CC[C@@H]1N1CCC[C@H]1CNS(C)(=O)=O [Example 82, N—(((S)-1-((1S,6R)-4-(3-Cyano-1-((R)-1-(2,4-dichlorophenyl)ethyl)-1H-pyrazolo[3,4-b]pyrazin-6-yl)-6-methylcyclohex-3-en-1-yl)pyrrolidin-2-yl)methyl)methanesulfonamide hydrochloride]
> 0.5	Cc1nn([C@H](C)c2ccc(Cl)cc2Cl)c2nc(N3CCC(N4CCC[C@H]4CCC(=O)O)C[C@@H]3C)cnc12 (mixture of isomers) [Example 50, 3-((2S)-1-((2S)-1-(1-((R)-1-(2,4-Dichlorophenyl)ethyl)-3-methyl-1H-pyrazolo[3,4-b]pyrazin-6-yl)-2-methylpiperidin-4-yl)pyrrolidin-2-yl)propanoic acid 2,2,2-trifluoroacetate]
< 0.1	C[C@H](c1ccc(Cl)cc1Cl)n1nc(C#N)c2ncc(N3CC[C@H](N4CCCCC4)[C@H](CO)C3)nc21 [Example 29, 1-((R)-1-(2,4-Dichlorophenyl)ethyl)-6-((3′R,4′S)-3′-(hydroxymethyl)-[1,4′-bipiperidin]-1′-yl)-1H-pyrazolo[3,4-b]pyrazine-3-carbonitrile hydrochloride]

Compound	IC50 [µM]
CC1CC(c2cnc3c(C#N)nn([C@H](C)c4ccc(Cl)cc4Cl)c3n2)=CCC1N1CCC[C@H]1C(N)=O (stereo partly drawn) [Example 79, (2S)-1-(4-(3-Cyano-1-((R)-1-(2,4-dichlorophenyl)ethyl)-1H-pyrazolo[3,4-b]pyrazin-6-yl)-6-methylcyclohex-3-en-1-yl)pyrrolidine-2-carboxamide hydrochloride]	< 0.1
CCOC(=O)c1nn(Cc2ccc(Cl)cc2Cl)c2nc(N3CCC(N4CCCCC4)C(C)C3)cnc12 (stereo not shown) [Example 11, Ethyl 1-(2,4-dichlorobenzyl)-6-(3′-methyl-[1,4′-bipiperidin]-1′-yl)-1H-pyrazolo[3,4-b]pyrazine-3-carboxylate hydrochloride]	0.1 to 0.5
